Data from ChEMBL document CHEMBL4017516, “Sulfonium as a Surrogate for Ammonium: A New α7 Nicotinic Acetylcholine Receptor Partial Agonist with Desensitizing Activity” (J Med Chem, 2017).
Active and inactive are the calls of the source. The calls are words filed in the database; no cut-off is given here.

Assays:
[1] = target: T1, Neuronal acetylcholine receptor subunit alpha-7 (Homo sapiens, UniProt P36544); assay: Silent agonist activity at human alpha7 nAChR expressed in Xenopus laevis oocytes assessed as induction of PNU-120596-stimulated peak current response at 30 uM administered for 12 secs followed by washout period for 181 secs by voltage clamp technique relative to acetylcholine; type: cell-based
[2] = target: T1, Neuronal acetylcholine receptor subunit alpha-7; assay: Antagonist activity at human alpha7 nAChR expressed in Xenopus laevis oocytes assessed as inhibition of acetylcholine-induced current response at 300 uM administered for 12 secs followed by washout period for 181 secs by voltage clamp technique relative to acetylcholine; type: cell-based
[3] = target: T1, Neuronal acetylcholine receptor subunit alpha-7; assay: Partial agonist activity at human alpha7 nAChR expressed in Xenopus laevis oocytes assessed as induction of maximum current response at 100 uM administered for 12 secs followed by washout period for 181 secs by voltage clamp technique relative to acetylcholine; type: cell-based
[4] = target: T1, Neuronal acetylcholine receptor subunit alpha-7; assay: Silent agonist activity at human alpha7 nAChR expressed in Xenopus laevis oocytes assessed as induction of PNU-120596-stimulated peak current response at 10 uM administered for 12 secs followed by washout period for 181 secs by voltage clamp technique relative to acetylcholine; type: cell-based
[5] = target: T1, Neuronal acetylcholine receptor subunit alpha-7; assay: Partial agonist activity at human alpha7 nAChR expressed in Xenopus laevis oocytes assessed as induction of maximum current response at 10 to 300 uM administered for 12 secs followed by washout period for 181 secs by voltage clamp technique; type: cell-based
[6] = target: T1, Neuronal acetylcholine receptor subunit alpha-7; assay: Silent agonist activity at human alpha7 nAChR expressed in Xenopus laevis oocytes assessed as induction of PNU-120596-stimulated peak current response at 100 uM administered for 12 secs followed by washout period for 181 secs by voltage clamp technique relative to acetylcholine; type: cell-based
[7] = target: T1, Neuronal acetylcholine receptor subunit alpha-7; assay: Partial agonist activity at human alpha7 nAChR expressed in Xenopus laevis oocytes assessed as induction of maximum current response administered for 12 secs followed by washout period for 181 secs by voltage clamp technique; type: cell-based
[8] = Hydrolytic stability of compound in water at 8.4 mM up to 60 days by [1H]-NMR spectroscopy; type: physicochemical; conditions: buffer, 1440 h, 8400 µM
[9] = target: T2, Neuronal acetylcholine receptor; alpha3/beta2 (Homo sapiens) (UniProt P17787+P32297); assay: Antagonist activity at human ganglionic alpha3beta2 nAChR expressed in Xenopus laevis oocytes assessed as inhibition of acetylcholine-induced current response at 100 uM administered for 6 secs followed by washout period for 241 secs by in presence of acetylcholine voltage clamp technique; type: cell-based
[10] = target: T1, Neuronal acetylcholine receptor subunit alpha-7; assay: Antagonist activity at human alpha7 nAChR expressed in Xenopus laevis oocytes assessed as inhibition of acetylcholine-induced current response administered for 12 secs followed by washout period for 181 secs by voltage clamp technique; type: cell-based
[11] = target: T3, Neuronal acetylcholine receptor; alpha4/beta2 (Homo sapiens, UniProt P17787+P43681); assay: Antagonist activity at human alpha4beta2 nAChR expressed in Xenopus laevis oocytes assessed as inhibition of acetylcholine-induced current response administered for 6 secs followed by washout period for 241 secs by voltage clamp technique; type: cell-based
[12] = target: T3, Neuronal acetylcholine receptor; alpha4/beta2; assay: Agonist activity at human alpha4beta2 nAChR expressed in Xenopus laevis oocytes assessed as induction of current response administered for 6 secs followed by washout period for 241 secs by voltage clamp technique; type: cell-based
[13] = Hydrolytic stability of compound in Ringers-D2O buffer at 8.4 mM at pH 7.2 up to 60 days by [1H]-NMR spectroscopy; type: physicochemical; conditions: pH 7.2, 1440 h, 8400 µM
[14] = target: T2, Neuronal acetylcholine receptor; alpha3/beta2 (Homo sapiens); assay: Agonist activity at human ganglionic alpha3beta2 nAChR expressed in Xenopus laevis oocytes assessed as induction of current response at 30 uM administered for 6 secs followed by washout period for 241 secs by in presence of acetylcholine voltage clamp technique; type: cell-based
[15] = target: T2, Neuronal acetylcholine receptor; alpha3/beta2 (Homo sapiens); assay: Agonist activity at human […] alpha3beta2 nAChR expressed in Xenopus laevis oocytes assessed as induction of current response at 30 uM administered for 6 secs followed by washout period for 241 secs by in presence of acetylcholine voltage clamp technique; type: cell-based
[16] = target: T1, Neuronal acetylcholine receptor subunit alpha-7; assay: Induction of human alpha7 nAChR desensitization expressed in Xenopus laevis oocytes at 100 uM pretreated for 30 secs followed by PNU-120596 administered for 10 secs by voltage clamp technique relative to acetylcholine; type: cell-based
[17] = target: T2, Neuronal acetylcholine receptor; alpha3/beta2 (Homo sapiens); assay: Antagonist activity at human […] alpha3beta2 nAChR expressed in Xenopus laevis oocytes assessed as inhibition of acetylcholine-induced current response at 30 uM administered for 6 secs followed by washout period for 241 secs by in presence of acetylcholine voltage clamp technique; type: cell-based

T1 sequence (P36544 whole entry): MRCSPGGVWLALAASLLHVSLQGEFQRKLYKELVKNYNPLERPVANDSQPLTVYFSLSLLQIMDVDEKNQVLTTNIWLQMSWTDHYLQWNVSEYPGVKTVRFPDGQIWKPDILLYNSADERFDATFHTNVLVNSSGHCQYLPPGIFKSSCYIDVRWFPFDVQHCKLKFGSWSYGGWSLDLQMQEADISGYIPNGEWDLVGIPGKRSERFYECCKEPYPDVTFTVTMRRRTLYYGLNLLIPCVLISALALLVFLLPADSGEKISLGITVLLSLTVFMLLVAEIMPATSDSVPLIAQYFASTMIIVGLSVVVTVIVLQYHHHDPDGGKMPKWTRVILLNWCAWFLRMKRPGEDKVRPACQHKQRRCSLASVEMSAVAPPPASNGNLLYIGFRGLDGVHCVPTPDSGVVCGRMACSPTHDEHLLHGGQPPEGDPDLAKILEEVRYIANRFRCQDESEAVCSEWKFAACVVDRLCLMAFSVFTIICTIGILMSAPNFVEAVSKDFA
T3 sequence (P17787 whole entry): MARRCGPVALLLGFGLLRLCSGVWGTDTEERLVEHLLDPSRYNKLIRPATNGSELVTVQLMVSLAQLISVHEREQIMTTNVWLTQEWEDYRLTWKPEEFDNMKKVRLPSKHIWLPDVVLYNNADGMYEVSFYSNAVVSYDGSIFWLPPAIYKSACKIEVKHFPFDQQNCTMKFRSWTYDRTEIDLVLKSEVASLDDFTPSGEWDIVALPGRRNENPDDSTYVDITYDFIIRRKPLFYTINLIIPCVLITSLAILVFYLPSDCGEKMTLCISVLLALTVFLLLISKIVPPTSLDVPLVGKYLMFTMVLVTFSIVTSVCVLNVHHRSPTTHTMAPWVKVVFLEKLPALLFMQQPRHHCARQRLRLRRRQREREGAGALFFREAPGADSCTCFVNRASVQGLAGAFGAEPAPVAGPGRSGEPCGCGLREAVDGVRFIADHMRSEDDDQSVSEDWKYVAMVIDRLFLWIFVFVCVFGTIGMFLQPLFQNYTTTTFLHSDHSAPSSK
T3 sequence (P43681 whole entry): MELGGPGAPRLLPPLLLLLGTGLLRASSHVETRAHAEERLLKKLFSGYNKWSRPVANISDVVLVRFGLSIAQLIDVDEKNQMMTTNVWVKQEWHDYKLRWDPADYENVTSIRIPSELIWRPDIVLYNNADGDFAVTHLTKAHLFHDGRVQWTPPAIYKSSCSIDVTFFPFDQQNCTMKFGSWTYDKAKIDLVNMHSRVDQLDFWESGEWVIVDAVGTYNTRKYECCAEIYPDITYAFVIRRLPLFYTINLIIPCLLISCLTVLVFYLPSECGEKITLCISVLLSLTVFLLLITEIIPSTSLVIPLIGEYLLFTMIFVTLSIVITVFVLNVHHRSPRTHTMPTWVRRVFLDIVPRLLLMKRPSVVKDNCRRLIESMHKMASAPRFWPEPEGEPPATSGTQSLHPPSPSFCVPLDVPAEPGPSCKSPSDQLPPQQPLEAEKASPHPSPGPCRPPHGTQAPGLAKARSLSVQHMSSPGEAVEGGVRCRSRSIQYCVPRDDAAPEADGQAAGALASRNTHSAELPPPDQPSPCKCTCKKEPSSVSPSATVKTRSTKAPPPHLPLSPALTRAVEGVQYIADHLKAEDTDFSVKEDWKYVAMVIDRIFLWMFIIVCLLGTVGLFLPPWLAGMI

CCN1CCN(c2ccccc2)CC1
Activity [1]: inactive | inhibition [2]: < 20% | fold change (FC) [3]: 0 | Activity [4]: inactive | Activity [5]: inactive | Activity [6]: inactive

CC[N+]1(c2ccccc2)CCSCC1
Activity [1]: inactive | Activity [7]: inactive | Activity [4]: inactive | Activity [6]: inactive

CC[S+]1CCN(c2ccccc2)CC1.O=S(=O)([O-])C(F)(F)F
fold change (FC) [1]: 3 | Stability [8]: Stable | inhibition [9]: Active | IC50 [10]: 73 µM | EC50 [7]: 40 µM | fold change (FC) [3]: 0.07 | IC50 [11]: 51 µM | Activity [12]: inactive | Stability [13]: Stable | fold change (FC) [4]: 5 | Activity [14]: inactive | Activity [15]: inactive | Activity [16]: Active | inhibition [17]: Active | fold change (FC) [6]: 25

CC[N+]1(CC)CCN(c2ccccc2)CC1
Activity [1]: Active | IC50 [10]: 55 µM | fold change (FC) [3]: 0.47 | Activity [4]: Active | Activity [6]: Active
